Test results: the supplement of paper PMC5908809

Legend:
[1] = test system: normal NK cells expanded with K562-aAPC; assay: percent inhibition of viability; higher = more inhibition; conditions: 72 h, IL-2 2.5 ng/mL
Method: (§1)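 Drug sensitivity and resistance testing on K562-aAPC-expanded normal NK cells: 5 concentrations (10-fold steps over a 10,000-fold range), 72 h at 37 °C, viability by CellTiter-Glo normalised to DMSO and benzethonium chloride controls; DSS from the fitted curve.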

[2] = test system: DERL-7 (IL-2 2.5 ng/mL); assay: as above; conditions: 72 h
[3] = test system: IMC-1 (IL-2 20 ng/mL); assay: as above; conditions: 72 h
[4] = test system: KAI3 (IL-2 2.5 ng/mL); assay: as above; conditions: 72 h
[5] = test system: KHYG-1 (IL-2 2.5 ng/mL); assay: as above; conditions: 72 h
[6] = test system: NK-92 (IL-2 2.5 ng/mL); assay: as above; conditions: 72 h
[7] = test system: NK-YS (IL-2 2.5 ng/mL); assay: as above; conditions: 72 h
[8] = test system: NKL (IL-2 2.5 ng/mL); assay: as above; conditions: 72 h
[9] = test system: SNK-6 (IL-2 2.5 ng/mL); assay: as above; conditions: 72 h
[10] = test system: YT (IL-2 2.5 ng/mL); assay: as above; conditions: 72 h
[11] = test system: normal primary NK cells, pool 1 (3 donors) (IL-2 2.5 ng/mL); assay: as above; conditions: 72 h
[12] = test system: normal primary NK cells, pool 1 (3 donors), resting (IL-2 0 ng/mL); assay: as above; conditions: 72 h
[13] = test system: normal primary NK cells, pool 2 (3 donors) (IL-2 2.5 ng/mL); assay: as above; conditions: 72 h
[14] = test system: normal primary NK cells, pool 3 (3 donors) (IL-2 2.5 ng/mL); assay: as above; conditions: 72 h
[15] = test system: normal NK cells expanded with K562-aAPC; assay: drug sensitivity score (DSS) (DSS units); higher = more sensitive; extreme values may be limits of the assay; conditions: 72 h; IL-2 2.5 ng/mL
Method: as §1

[16] = test system: DERL-7 (IL-2 2.5 ng/mL); assay: as above; conditions: 72 h
[17] = test system: IMC-1 (IL-2 20 ng/mL); assay: as above; conditions: 72 h
[18] = test system: KAI3 (IL-2 2.5 ng/mL); assay: as above; conditions: 72 h
[19] = test system: KHYG-1 (IL-2 2.5 ng/mL); assay: as above; conditions: 72 h
[20] = test system: NK-92 (IL-2 2.5 ng/mL); assay: as above; conditions: 72 h
[21] = test system: NK-YS (IL-2 2.5 ng/mL); assay: as above; conditions: 72 h
[22] = test system: NKL (IL-2 2.5 ng/mL); assay: as above; conditions: 72 h
[23] = test system: SNK-6 (IL-2 2.5 ng/mL); assay: as above; conditions: 72 h
[24] = test system: YT (IL-2 2.5 ng/mL); assay: as above; conditions: 72 h
[25] = test system: normal primary NK cells, pool 1 (3 donors) (IL-2 2.5 ng/mL); assay: as above; conditions: 72 h
[26] = test system: normal primary NK cells, pool 1 (3 donors), resting (IL-2 0 ng/mL); assay: as above; conditions: 72 h
[27] = test system: normal primary NK cells, pool 2 (3 donors) (IL-2 2.5 ng/mL); assay: as above; conditions: 72 h
[28] = test system: normal primary NK cells, pool 3 (3 donors) (IL-2 2.5 ng/mL); assay: as above; conditions: 72 h

CCN(CC)CCNC(=O)c1c(C)[nH]c(/C=C2\C(=O)Nc3ccc(F)cc32)c1C [Sunitinib] (max concentration tested 1000 nM)
percent inhibition of viability [%]
Conditions	0.1 nM	1 nM	10 nM	100 nM	1000 nM
[1]	-1.15	-8.6	-7.99	-3.78	8.28
[2]	-3.26	-7.9	-4.27	2.22	8.72
[3]	-2.84	-1.04	-2.36	-9.74	-11.7
[4]	-6.44	-3.5	-1.64	-2.65	13.1
[5]	-2.13	-0.89	-1.78	-2.5	-1.47
[6]	-1.8	-5.15	-7.66	-13.8	-16.3
[7]	-7.84	-1.57	-0.53	-5.09	20
[8]	-10.3	-18.8	-13.7	-21.1	-19
[9]	5.7	4.75	3.71	-18.1	-44.5
[10]	-1.95	0.38	0.07	-2.92	-1.42
[11]	-9.12	-5.49	0.84	2.57	11.7
[12]	-1.26	-12.4	6.63	10.2	8.42
[13]	-6.76	-0.63	-6.25	-4.61	11.7
[14]	-5.22	-2.41	-6.25	-3.39	0.3

Conditions	drug sensitivity score
[15]	0
[16]	0
[17]	0
[18]	0.06
[19]	0
[20]	0
[21]	0.4
[22]	0
[23]	0
[24]	0
[25]	0.13
[26]	0.08
[27]	0
[28]	0

N#Cc1ccc2[nH]c(O)c(-c3ccc(CN4CCOCC4)cn3)c2c1 [AZD-1080] (max concentration tested 10000 nM)
percent inhibition of viability [%]
Conditions	1 nM	10 nM	100 nM	1000 nM	10000 nM
[1]	-8.89	-11.1	-9.66	-4.69	17.9
[2]	0.69	-2.27	-0.41	-4.2	88.5
[3]	-6.19	-4.98	-2.55	-0.22	68.7
[4]	-2.28	-5.79	-9.97	-21.1	16.1
[5]	-9.77	-11.1	-7.95	-10.2	15.1
[6]	-5.77	-9.41	-10.5	-11.2	-14.5
[7]	-7.92	-9.02	-9.19	-12.2	14.6
[8]	-2.17	-4.57	-11.4	-10.8	26.2
[9]	-12	-18.9	-7.02	-36.2	-41.6
[10]	-4.13	-5.06	-2.61	-7.8	19
[11]	-13.1	1.31	-13.3	-7.59	-4.41
[12]	-0.71	6.84	6.15	-35.3	-109
[13]	3.02	1.99	-1.33	-5.26	2.97
[14]	6.51	4.2	7.89	-9.63	14.5

Conditions	drug sensitivity score
[15]	0.28
[16]	4.59
[17]	3.76
[18]	0.09
[19]	0.09
[20]	0
[21]	0.06
[22]	0.66
[23]	0
[24]	0.3
[25]	0
[26]	0
[27]	0
[28]	0.08
